Measurements as given in article PMC5830651 (Molecular Oncology, 2018).

Legend:
Assay type in all cases: biochemical
ERK2 = biological target: T1, ERK2 (Homo sapiens, UniProt P28482); experiment: in vitro kinase assay
T1 construct: gene MAPK1; recombinant
Description: in vitro kinase assay on ERK2

AURKA = biological target: T2, AURKA (Homo sapiens, UniProt O14965); experiment: in vitro kinase assay
T2 construct: recombinant
T2 sequence (O14965 1-403): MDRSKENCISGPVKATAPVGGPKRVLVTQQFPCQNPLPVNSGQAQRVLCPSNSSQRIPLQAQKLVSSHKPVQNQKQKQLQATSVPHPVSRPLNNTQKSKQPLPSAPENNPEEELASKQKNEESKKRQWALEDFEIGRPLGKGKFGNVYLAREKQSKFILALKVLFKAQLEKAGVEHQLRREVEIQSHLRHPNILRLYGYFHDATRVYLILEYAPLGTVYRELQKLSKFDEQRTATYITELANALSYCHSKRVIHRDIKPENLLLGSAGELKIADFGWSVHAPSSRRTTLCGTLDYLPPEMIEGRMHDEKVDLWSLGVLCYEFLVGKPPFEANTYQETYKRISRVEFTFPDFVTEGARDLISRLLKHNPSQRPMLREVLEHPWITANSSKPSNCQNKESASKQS
Description: in vitro kinase assay on AURKA

SRC = biological target: T3, SRC (Homo sapiens, UniProt P12931); experiment: in vitro kinase assay
T3 construct: recombinant
T3 sequence (P12931 2-536): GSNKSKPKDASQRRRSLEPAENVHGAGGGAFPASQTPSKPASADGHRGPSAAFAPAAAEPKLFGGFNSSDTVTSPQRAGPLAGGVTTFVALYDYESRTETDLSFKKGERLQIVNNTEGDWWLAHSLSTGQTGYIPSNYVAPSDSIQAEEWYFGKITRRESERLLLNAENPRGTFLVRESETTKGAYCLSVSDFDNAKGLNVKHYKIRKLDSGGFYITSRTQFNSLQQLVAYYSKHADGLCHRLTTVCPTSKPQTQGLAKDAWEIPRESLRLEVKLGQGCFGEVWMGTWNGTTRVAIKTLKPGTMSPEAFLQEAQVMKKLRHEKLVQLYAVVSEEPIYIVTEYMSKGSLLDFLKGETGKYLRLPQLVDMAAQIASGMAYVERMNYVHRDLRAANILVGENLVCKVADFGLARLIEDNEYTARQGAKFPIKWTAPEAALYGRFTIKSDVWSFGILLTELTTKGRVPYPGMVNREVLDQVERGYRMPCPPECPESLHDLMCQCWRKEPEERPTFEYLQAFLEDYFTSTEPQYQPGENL
Description: in vitro kinase assay on SRC

PLK1 = biological target: T4, PLK1 (Homo sapiens, UniProt P53350); experiment: in vitro kinase assay
T4 construct: recombinant
Description: in vitro kinase assay on PLK1

SAP2KA = biological target: T5, SAP2KA (Homo sapiens, UniProt Q16539); experiment: in vitro kinase assay
T5 construct: gene MAPK14; recombinant; printed SAP2KA, read as SAPK2A
T5 sequence (Q16539 2-360): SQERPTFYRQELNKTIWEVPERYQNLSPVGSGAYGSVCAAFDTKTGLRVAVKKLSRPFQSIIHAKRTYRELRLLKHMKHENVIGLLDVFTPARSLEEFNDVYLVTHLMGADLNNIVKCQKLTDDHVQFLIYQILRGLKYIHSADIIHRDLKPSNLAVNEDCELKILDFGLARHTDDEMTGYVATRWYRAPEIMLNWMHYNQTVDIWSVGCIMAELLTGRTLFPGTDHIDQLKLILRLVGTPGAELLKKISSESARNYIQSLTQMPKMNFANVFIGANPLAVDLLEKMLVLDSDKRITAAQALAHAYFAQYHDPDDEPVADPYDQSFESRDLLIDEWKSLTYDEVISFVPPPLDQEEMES
Description: in vitro kinase assay on SAP2KA

CDK6/D3 = biological target: T6, CDK6/D3 (Homo sapiens, UniProt Q00534); experiment: in vitro kinase assay; conditions: read-out: CCT068127 Mean IC50 (μmol.L^-1) ± SE; mean of three independent repeats
T6 construct: recombinant human kinase complex; with G1/S-specific cyclin-D3
T6 sequence (Q00534 whole entry): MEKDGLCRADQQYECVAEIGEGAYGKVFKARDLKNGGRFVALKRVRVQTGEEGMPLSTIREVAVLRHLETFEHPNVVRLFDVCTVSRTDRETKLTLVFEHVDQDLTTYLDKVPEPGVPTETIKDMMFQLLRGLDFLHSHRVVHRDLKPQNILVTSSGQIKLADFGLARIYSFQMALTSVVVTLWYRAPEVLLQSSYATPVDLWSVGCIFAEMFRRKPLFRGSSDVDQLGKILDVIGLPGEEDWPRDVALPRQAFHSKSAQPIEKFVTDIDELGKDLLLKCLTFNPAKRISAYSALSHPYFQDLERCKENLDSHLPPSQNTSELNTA
T6 sequence (P30281 whole entry partner): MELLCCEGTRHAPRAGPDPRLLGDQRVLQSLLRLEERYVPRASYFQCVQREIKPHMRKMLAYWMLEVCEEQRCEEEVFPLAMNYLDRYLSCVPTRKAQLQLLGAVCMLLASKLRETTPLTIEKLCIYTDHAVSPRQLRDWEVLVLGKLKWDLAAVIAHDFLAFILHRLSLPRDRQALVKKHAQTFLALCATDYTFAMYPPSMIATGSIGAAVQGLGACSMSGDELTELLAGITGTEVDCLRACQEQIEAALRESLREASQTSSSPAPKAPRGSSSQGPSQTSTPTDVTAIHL
Description: in vitro kinase assay on CDK6/D3

PDGFB = biological target: T7, PDGFB (Homo sapiens, UniProt P09619); experiment: in vitro kinase assay
T7 construct: gene PDGFRB; recombinant kinase; printed PDGFB, must be the receptor kinase PDGFR beta
T7 sequence (P09619 33-1106): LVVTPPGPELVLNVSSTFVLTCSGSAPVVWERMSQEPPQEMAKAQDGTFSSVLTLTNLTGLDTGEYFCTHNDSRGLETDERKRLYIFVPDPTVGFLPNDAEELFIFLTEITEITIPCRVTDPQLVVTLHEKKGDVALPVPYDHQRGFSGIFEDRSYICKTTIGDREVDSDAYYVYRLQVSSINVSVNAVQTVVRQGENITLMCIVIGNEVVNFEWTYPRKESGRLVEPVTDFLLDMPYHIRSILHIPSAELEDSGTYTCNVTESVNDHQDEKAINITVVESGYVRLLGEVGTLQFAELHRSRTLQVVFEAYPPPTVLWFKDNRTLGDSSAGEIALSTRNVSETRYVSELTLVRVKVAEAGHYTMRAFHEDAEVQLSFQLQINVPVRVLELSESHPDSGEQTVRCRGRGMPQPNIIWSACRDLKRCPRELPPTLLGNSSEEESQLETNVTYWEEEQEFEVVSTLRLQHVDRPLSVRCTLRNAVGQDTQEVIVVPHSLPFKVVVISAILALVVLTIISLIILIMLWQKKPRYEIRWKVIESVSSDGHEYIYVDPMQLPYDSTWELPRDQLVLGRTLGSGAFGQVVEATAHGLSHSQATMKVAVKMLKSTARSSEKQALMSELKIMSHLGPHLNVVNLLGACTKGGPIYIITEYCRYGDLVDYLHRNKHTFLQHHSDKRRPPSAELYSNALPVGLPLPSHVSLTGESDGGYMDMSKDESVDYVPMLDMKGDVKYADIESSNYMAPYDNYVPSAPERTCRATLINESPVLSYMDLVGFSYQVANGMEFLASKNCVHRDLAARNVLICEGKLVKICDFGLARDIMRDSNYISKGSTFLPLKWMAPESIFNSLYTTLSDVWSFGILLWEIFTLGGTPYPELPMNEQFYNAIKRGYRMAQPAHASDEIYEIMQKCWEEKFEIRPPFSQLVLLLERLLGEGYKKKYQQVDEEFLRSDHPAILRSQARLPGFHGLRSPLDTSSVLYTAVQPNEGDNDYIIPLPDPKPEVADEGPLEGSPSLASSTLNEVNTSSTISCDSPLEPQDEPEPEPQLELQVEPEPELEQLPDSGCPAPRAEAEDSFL
Description: in vitro kinase assay on PDGFB

FLT3 = biological target: T8, FLT3 (Homo sapiens, UniProt P36888); experiment: in vitro kinase assay
T8 construct: recombinant
T8 sequence (P36888 27-993): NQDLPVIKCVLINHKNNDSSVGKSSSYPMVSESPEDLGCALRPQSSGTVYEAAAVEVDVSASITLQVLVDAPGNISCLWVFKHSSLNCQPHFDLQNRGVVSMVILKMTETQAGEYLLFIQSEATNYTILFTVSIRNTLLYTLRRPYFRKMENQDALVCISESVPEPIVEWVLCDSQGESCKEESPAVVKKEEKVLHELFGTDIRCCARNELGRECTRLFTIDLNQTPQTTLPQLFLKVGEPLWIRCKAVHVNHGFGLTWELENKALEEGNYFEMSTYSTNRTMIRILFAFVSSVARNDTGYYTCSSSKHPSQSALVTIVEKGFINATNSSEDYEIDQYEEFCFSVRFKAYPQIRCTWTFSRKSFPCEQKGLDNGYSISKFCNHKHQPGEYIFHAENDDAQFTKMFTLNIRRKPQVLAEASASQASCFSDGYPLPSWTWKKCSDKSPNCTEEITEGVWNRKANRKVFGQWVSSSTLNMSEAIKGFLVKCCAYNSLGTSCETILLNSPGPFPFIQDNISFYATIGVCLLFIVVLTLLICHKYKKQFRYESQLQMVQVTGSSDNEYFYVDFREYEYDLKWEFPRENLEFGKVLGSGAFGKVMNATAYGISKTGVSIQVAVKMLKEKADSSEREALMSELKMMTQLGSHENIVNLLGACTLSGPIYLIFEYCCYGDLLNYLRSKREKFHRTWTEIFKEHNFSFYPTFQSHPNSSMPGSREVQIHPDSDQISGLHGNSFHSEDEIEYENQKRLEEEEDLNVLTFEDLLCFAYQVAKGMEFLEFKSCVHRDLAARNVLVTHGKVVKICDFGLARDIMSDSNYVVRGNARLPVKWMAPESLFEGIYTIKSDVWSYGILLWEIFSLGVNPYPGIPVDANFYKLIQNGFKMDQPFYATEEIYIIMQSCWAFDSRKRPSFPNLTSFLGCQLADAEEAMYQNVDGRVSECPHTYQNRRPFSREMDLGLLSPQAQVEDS
Description: in vitro kinase assay on FLT3

LCK = biological target: T9, LCK (Homo sapiens, UniProt P06239); experiment: in vitro kinase assay
T9 construct: recombinant
T9 sequence (P06239 2-509): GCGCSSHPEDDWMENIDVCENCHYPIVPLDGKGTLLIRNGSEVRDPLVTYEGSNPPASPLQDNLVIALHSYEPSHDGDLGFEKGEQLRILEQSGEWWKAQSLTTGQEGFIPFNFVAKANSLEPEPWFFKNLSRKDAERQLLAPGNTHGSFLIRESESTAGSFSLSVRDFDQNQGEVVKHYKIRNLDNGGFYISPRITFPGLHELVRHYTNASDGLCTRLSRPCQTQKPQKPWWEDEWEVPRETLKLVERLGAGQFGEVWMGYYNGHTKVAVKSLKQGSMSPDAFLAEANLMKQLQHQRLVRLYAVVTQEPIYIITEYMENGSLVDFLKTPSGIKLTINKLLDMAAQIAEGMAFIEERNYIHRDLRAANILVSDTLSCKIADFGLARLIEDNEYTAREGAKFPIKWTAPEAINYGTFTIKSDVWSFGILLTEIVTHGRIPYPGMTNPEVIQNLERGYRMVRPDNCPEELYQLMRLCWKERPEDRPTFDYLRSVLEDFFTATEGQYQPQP
Description: in vitro kinase assay on LCK

CDK1/B (CDK1/cyclin B) = biological target: T10, CDK1/B (CDK1/cyclin B) (Homo sapiens, UniProt P06493); experiment: in vitro kinase assay; conditions: read-out: CCT068127 Mean IC50 (μmol.L^-1) ± SE; mean of three independent repeats
T10 construct: recombinant human kinase complex; with G2/mitotic-specific cyclin-B1
T10 sequence (P06493 whole entry): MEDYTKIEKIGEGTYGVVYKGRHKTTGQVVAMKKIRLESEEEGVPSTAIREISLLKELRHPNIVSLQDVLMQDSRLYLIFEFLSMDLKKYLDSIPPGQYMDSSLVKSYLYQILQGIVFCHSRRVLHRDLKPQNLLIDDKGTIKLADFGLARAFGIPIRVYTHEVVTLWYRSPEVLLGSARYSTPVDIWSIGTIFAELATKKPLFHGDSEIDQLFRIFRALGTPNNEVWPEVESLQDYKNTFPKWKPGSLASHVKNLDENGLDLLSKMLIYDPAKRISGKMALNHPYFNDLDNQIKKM
T10 sequence (P14635 whole entry partner): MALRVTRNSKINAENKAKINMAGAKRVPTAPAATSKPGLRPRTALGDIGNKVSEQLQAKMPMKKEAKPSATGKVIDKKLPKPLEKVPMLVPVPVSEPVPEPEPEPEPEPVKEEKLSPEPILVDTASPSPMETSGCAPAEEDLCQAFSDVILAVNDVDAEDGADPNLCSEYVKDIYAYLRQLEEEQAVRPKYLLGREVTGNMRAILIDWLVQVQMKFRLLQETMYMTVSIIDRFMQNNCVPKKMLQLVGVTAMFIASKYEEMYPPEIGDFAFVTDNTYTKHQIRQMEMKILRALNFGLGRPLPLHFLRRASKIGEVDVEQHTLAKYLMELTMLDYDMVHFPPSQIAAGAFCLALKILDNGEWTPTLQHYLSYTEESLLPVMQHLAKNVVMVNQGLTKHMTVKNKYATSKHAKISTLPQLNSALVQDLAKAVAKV
Description: in vitro kinase assay on CDK1/B (CDK1/cyclin B)

CDK5/p35 = biological target: T11, CDK5/p35 (Homo sapiens, UniProt Q00535); experiment: Invitrogen Select Screen kinase assay; conditions: read-out: CCT068127 Mean IC50 (μmol.L^-1) ± SE; mean of two determinations
T11 construct: recombinant complex, Invitrogen Select Screen service
T11 sequence (Q00535 whole entry): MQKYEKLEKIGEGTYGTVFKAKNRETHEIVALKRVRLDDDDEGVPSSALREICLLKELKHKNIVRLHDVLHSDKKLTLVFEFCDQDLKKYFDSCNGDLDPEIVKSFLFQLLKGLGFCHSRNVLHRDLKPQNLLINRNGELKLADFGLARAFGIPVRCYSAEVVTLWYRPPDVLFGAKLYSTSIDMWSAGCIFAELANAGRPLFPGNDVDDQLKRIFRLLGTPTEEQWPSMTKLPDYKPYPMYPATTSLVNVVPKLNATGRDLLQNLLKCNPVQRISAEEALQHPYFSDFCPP
T11 sequence (Q15078 2-307 partner): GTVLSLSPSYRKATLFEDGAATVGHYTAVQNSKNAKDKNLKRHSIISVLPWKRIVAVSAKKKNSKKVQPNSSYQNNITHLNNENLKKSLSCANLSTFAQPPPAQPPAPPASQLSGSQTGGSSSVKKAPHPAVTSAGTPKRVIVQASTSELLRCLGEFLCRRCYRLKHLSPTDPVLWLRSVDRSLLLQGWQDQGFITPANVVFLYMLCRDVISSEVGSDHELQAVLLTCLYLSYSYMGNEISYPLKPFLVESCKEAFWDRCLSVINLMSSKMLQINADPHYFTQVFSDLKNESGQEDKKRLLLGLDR
Description: Invitrogen Select Screen kinase assay on CDK5/p35

ABL = biological target: T12, ABL (Homo sapiens, UniProt P00519); experiment: in vitro kinase assay
T12 construct: gene ABL1; recombinant
Description: in vitro kinase assay on ABL

T1 sequence (P28482 2-360): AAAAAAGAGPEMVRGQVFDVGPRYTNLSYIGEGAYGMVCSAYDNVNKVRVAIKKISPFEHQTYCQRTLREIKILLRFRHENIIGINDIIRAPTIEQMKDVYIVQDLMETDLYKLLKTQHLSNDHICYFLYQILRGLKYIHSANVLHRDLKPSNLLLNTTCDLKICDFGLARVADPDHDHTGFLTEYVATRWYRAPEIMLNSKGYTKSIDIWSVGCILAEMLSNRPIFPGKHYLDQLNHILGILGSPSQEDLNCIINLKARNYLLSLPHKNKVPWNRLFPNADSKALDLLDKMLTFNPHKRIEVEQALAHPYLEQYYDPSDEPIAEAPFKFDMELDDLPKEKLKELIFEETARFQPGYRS

- IC50 (ERK2): > 10 µM
- IC50 (AURKA): > 10 µM
- IC50 (SRC): > 10 µM
- IC50 (PLK1): > 10 µM
- IC50 (SAP2KA): > 10 µM
- IC50 (CDK6/D3): 6.2 ± 0.6 µmol/L
- IC50 (PDGFB): > 10 µM
- IC50 (FLT3): > 10 µM
- IC50 (LCK): > 10 µM
- IC50 (CDK1/B (CDK1/cyclin B)): 1.1 ± 0.29 µmol/L
- IC50 (CDK5/p35): 0.07 µmol/L
- IC50 (ABL): > 10 µM
Compound: CC[C@H](Nc1nc(NCc2cccnc2)c2ncn(C(C)C)c2n1)[C@@H](C)O [CCT068127]
